# Results: US6692745B2, “Compositions and methods for inhibition of HIV-1 infection” (priority 2000, dated 2004)
# Key:
# [1] = test system: HIV; settings: Phase I/II; cited from earlier work
# [2] = test system: HIV-1 envelope-mediated fusion between HeLa-EnvJR-FL and PM1 cells
# Procedure: HIV-1 envelope-mediated fusion between HeLa-EnvJR-FL and PM1 cells was detected using a Resonance Energy Transfer (RET) assay.
# HIV-1 inhibition data were analyzed according to the Combination Index method of Chou and Talay.
# Equation (1) is a generalized form of the equations describing Michaelis-Menton enzyme kinetics, Langmuir adsorption isotherms, and Henderson-Hasselbalch ionization equilibria, for which m=1 in all cases. In the present case, K is equal to the IC50 value. K and m are determined by curve-fitting the dose-response curves.
# After the best-fit parameters for K and m are obtained for the experimental agents and their combination, Equation (1) is rearranged to allow for calculation of c for a given f.
# All concentrations are those required to achieve a given degree of inhibition. Equation (2) is used when the molecules are mutually nonexclusive, i.e., have different sites of action. Since this is the likely scenario for inhibitors of HIV-1 attachment and gp41 fusion intermediates, Equation (2) was used for all Combination Index calculations. Mutually nonexclusive calculations provide a more conservative estimate of the degree of synergy that mutually exclusive calculations, for which the c1mc2m/c1c2 term is dropped. CI<1 indicates synergy, CI=1 indicates purely additive effects, and CI>1 indicates antagonism. In general, CI values are most relevant at the higher levels of inhibition that are required to achieve a measurable clinical benefit.
substance,measurement,setting,value
enfuvirtide,reduction of plasma HIV RNA levels,[1],≤ 2 logs
same,concentration of the individual agent contained in the combination giving 95% inhibition,"[2]; 25:1 CD4-IgG2:T-20 mass ratio, calculated from known mass ratio",0.044 µg/mL
same,Dose Reduction (ratio of inhibitor concentration alone v. in synergistic combination),"[2]; 95% inhibition, 25:1 CD4-IgG2:T-20 mass ratio",5 fold
same,"K, concentration of agent required to produce the median effect (equal to the IC50 value)","[2]; HeLa-EnvJR-FL and PM1 cells, RET after 4 h, mean of three independent experiments, best-fit to median effect equation, FIG. 1",0.017 µg/mL
same,concentration required for inhibition of viral entry by 95%,"[2]; agent used alone, or total concentration of the 25:1 combination, calculated from fitted K and m, FIG. 3",0.21 µg/mL
